Test results reported in article PMC467104, “Novel NO-TZDs and trimethoxychalcone-based DHPMs: design, synthesis, and biological evaluation as potential VEGFR-2 inhibitors” (Journal of Enzyme Inhibition and Medicinal Chemistry, 2024).

Target: T1, VEGFR-2 (Homo sapiens, UniProt P35968)
T1 construct: gene KDR
Assay: BPS Bioscience KDR kinase assay (Kinase-Glo Max/ADP-Glo luminescence)
Assay type: biochemical

T1 sequence (P35968 20-1356): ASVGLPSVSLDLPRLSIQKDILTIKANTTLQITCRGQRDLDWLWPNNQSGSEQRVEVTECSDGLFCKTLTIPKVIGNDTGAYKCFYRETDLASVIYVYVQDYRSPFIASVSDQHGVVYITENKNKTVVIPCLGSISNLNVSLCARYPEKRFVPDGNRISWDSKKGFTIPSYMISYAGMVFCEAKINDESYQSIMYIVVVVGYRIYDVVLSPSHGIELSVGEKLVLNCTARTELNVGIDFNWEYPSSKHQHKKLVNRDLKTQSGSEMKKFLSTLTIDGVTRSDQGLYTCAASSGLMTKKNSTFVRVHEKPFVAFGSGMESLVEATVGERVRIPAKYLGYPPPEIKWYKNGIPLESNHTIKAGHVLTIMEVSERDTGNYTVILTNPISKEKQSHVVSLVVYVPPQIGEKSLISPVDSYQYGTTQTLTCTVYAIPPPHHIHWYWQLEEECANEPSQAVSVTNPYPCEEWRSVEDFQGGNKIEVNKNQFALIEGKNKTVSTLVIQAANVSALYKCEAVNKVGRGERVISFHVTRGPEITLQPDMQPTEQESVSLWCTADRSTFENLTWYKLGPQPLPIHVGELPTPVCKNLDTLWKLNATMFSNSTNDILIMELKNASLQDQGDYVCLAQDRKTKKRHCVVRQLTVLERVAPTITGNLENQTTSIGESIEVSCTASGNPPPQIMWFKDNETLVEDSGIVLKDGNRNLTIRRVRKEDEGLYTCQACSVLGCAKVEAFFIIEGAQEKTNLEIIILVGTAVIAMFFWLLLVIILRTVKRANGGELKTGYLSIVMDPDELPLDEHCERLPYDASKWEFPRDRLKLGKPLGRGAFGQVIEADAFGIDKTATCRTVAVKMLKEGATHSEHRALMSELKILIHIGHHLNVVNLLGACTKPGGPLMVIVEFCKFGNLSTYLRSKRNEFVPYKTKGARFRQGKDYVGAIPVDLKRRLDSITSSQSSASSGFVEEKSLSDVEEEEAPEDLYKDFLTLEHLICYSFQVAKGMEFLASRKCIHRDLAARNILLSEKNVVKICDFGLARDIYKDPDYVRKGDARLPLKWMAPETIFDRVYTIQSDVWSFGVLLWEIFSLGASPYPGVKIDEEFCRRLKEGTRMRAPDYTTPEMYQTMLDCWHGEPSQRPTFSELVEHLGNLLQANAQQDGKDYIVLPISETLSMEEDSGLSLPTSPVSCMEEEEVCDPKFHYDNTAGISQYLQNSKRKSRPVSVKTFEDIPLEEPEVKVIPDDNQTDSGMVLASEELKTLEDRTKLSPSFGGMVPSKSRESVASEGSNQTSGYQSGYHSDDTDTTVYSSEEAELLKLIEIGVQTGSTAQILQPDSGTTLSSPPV

`CCOC(=O)C1=C(C)NC(SCC(=O)Nc2ccc(C(=O)/C=C/c3cc(OC)c(OC)c(OC)c3)cc2)=N[C@@H]1c1ccc(O)c(OC)c1` [CDHPM-10e, Ethyl (R,E)-4–(4-hydroxy-3-methoxyphenyl)-6-methyl-2-((2-oxo-2-((4–(3-(3,4,5-trimethoxyphenyl)acryloyl)phenyl)amino)ethyl)thio)-1,4-dihydropyrimidine-5-carboxylate] was tested, and the IC50 was 0.112 µM.
